Test: Partition coefficient (logP) of the compound
Type: physicochemical

**Q.** Which logP does the source give for `O=c1c2ccccc2[nH]c2ccccc12` [ACRIDONE] here?
**A.** 2.98

**Q.** Which logP does the source give for `Nc1n[n+]([O-])c2ccccc2[n+]1[O-]` [TIRAPAZAMINE] here?
**A.** -0.342

**Q.** For `Nc1n[n+]([O-])c2cc(C(F)(F)F)ccc2[n+]1[O-]`, which logP is on record?
**A.** 0.82

**Q.** With `NC(N)=O` [UREA] as the compound, how does the logP read?
**A.** -2.01

**Q.** For `OC[C@@H](O)[C@@H](O)[C@H](O)[C@H](O)CO` [MANNITOL], which logP is on record?
**A.** -2.62

**Q.** With `Nc1n[n+]([O-])c2c(Cl)cccc2[n+]1[O-]` as the compound, how does the logP read?
**A.** 0.166

**Q.** For `Cc1ccc2c(c1)[n+]([O-])nc(N)[n+]2[O-]`, which logP is on record?
**A.** 0.127

**Q.** For `Nc1n[n+]([O-])c2cc(Cl)ccc2[n+]1[O-]`, which logP is on record?
**A.** 0.441

**Q.** For `Cc1cccc2c1[n+]([O-])nc(N)[n+]2[O-]`, which logP is on record?
**A.** 0.24

**Q.** Which logP does the source give for `COCCc1cccc(Nc2n[n+]([O-])c3ccccc3[n+]2[O-])c1` here?
**A.** 1.51

**Q.** With `CS(=O)(=O)c1ccc2c(c1)[n+]([O-])nc(N)[n+]2[O-]` as the compound, how does the logP read?
**A.** -1.15

**Q.** With `[O-][n+]1nc(Nc2ccccc2)[n+]([O-])c2ccccc21` as the compound, how does the logP read?
**A.** 1.43

**Q.** With `Nc1n[n+]([O-])c2c(C(F)(F)F)cccc2[n+]1[O-]` as the compound, how does the logP read?
**A.** 0.48

**Q.** Which logP does the source give for `CCN(CC)c1cccc2c1[n+]([O-])nc(N)[n+]2[O-]` here?
**A.** 0.83

**Q.** Which logP does the source give for `CS(=O)(=O)c1cccc2c1[n+]([O-])nc(N)[n+]2[O-]` here?
**A.** -1.38

**Q.** With `Nc1n[n+]([O-])c2cccc(Cl)c2[n+]1[O-]` as the compound, how does the logP read?
**A.** -0.102

**Q.** For `Cc1ccc2c(c1)[n+]([O-])c(N)n[n+]2[O-]`, which logP is on record?
**A.** 0.068
